Our source for the Emax values is patent EP2818472A1, “Imidazo[4,5-c]pyridine and pyrrolo[3,2-c]pyridine compounds as G-protein-coupled receptor kinase 5 (GRK5) modulators” (Max-Planck-Gesellschaft zur Förderung der Wissenschaften …, priority 2013, dated 2014).

This test relates to beta-TC6 cells. In words: Insulin HTRF assay (relative activity Ar) in beta-TC6 cells. As to conditions: Mus musculus, Beta-TC6, 4 h, insulin HTRF, supernatant of beta-TC6 cells, incubation with test compound at 37°C for 2, 3, 4h; read-out: Ar (relative activity). In kind it is cell-based, mouse. Put shortly: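 beta-TC6 cells (15k/well, seeded 24 or 48 h) washed, then exposed to compound in induction buffer (0.5% DMSO final) for 2, 3 or 4 h at 37°C.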

In the case of `Fc1cccc(-c2nc3c(NCCc4ccccn4)nccc3[nH]2)c1` [Compound 406, 2-(3-fluorophenyl)-N-[2-(2-pyridyl)ethyl]-1H-imidazo[4,5-c]pyridin-4-amine], the Emax is 50 to 100%. Under `CN(C)C(=O)c1ccc(Nc2cc3[nH]c(-c4ccc(C(=O)N(C)C)cc4)cc3cn2)cc1` [Compound 40, 4-[6-[4-(dimethylcarbamoyl)anilino]-1H-pyrrolo[3,2-c]pyridin-2-yl]-N,N-dimethyl-benzamide] stands > 100%; under `Cn1c(Nc2ccccc2)nc2cnc(-c3cccc4ccccc34)cc21` [Compound 635, 1-methyl-6-(1-naphthyl)-N-phenyl-imidazo[4,5-c]pyridin-2-amine], 30 to 50%. Next, `CNc1nc2cnc(Nc3ccc4c(c3)OCO4)cc2n1-c1cccc(C(F)(F)F)c1` [Compound 549, N6-(1,3-benzodioxol-5-yl)-N2-methyl-1-[3-(trifluoromethyl)phenyl]imidazo[4,5-c]pyridine-2,6-diamine]: 30 to 50%; `Cc1ccc(-c2nc3c(Nc4cccc(O)c4)nccc3[nH]2)cc1` [Compound 383, 3-[[2-(p-tolyl)-1H-imidazo[4,5-c]pyridin-4-yl]amino]phenol]: 50 to 100%; `Cn1cc(-c2cc3cnc(Nc4ccccc4)cc3n2C)cn1` [Compound 132, 1-methyl-2-(1-methylpyrazol-4-yl)-N-phenyl-pyrrolo[3,2-c]pyridin-6-amine]: 50 to 100%. Next, `CC(C)Oc1ccc(Nc2cc3[nH]c(-c4cccnc4)cc3cn2)cc1` [Compound 81, N-(4-isopropoxyphenyl)-2-(3-pyridyl)-1H-pyrrolo[3,2-c]pyridin-6-amine]: 30 to 50%; `COc1cc(Nc2nccc3[nH]c(-c4ccccc4)nc23)cc(OC)c1OC` [Compound 329, 2-phenyl-N-(3,4,5-trimethoxyphenyl)-1H-imidazo[4,5-c]pyridin-4-amine]: 50 to 100%; `Oc1cccc(Nc2nccc3[nH]c(-c4ccsc4)cc23)c1` [Compound 264, 3-[[2-(3-thienyl)-1H-pyrrolo[3,2-c]pyridin-4-yl]amino]phenol]: 30 to 50%. As for `COc1ccc(Nc2nccc3[nH]c(-c4cccc(OC(F)(F)F)c4)nc23)cc1O` [Compound 444, 2-methoxy-5-[[2-[3-(trifluoromethoxy)phenyl]-1H-imidazo[4,5-c]pyridin-4-yl]amino]phenol], the Emax was 30 to 50%. Consider `COc1ccc(-c2nc3c(Nc4cc(OC)c(OC)c(OC)c4)nccc3[nH]2)cc1` [Compound 389, 2-(4-methoxyphenyl)-N-(3,4,5-trimethoxyphenyl)-1H-imidazo[4,5-c]pyridin-4-amine], for which the Emax lay within 50 to 100%. For `CC(=O)Nc1ccc(Nc2cc3[nH]c(-c4cccnc4)cc3cn2)cc1` [Compound 74, N-[4-[[2-(3-pyridyl)-1H-pyrrolo[3,2-c]pyridin-6-yl]amino]phenyl]acetamide], the Emax is > 100%. Under `CS(=O)(=O)c1cccc(Nc2nccc3[nH]c(-c4ccsc4)cc23)c1` [Compound 262, N-(3-methylsulfonylphenyl)-2-(3-thienyl)-1H-pyrrolo[3,2-c]pyridin-4-amine] stands 50 to 100%. Next, `c1ccc(CNc2nccc3[nH]c(-c4cccnc4)nc23)cc1` [Compound 360, N-benzyl-2-(3-pyridyl)-1H-imidazo[4,5-c]pyridin-4-amine]: 0 to 30%. For `COC(=O)c1ccc(Nc2cc3[nH]c(-c4ccc(C(=O)N(C)C)cc4)cc3cn2)cc1` [Compound 29, methyl 4-[[2-[4-(dimethylcarbamoyl)phenyl]-1H-pyrrolo[3,2-c]pyridin-6-yl]amino]benzoate], the Emax is 30 to 50%. As for `CNc1nc2cnc(Nc3cccc(F)c3)cc2n1Cc1ccc(OC)c(OC)c1` [Compound 674, 1-[(3,4-dimethoxyphenyl)methyl]-N6-(3-fluorophenyl)-N2-methyl-imidazo[4,5-c]pyridine-2,6-diamine], the Emax was in the range of 30 to 50%. Next, `CNc1nc2cnc(Nc3ccc(C#N)cc3)cc2n1-c1cccc(F)c1` [Compound 686, 4-[[1-(3-fluorophenyl)-2-(methylamino)imidazo[4,5-c]pyridin-6-yl]amino]benzonitrile]: 30 to 50%; `COc1ccccc1-c1cc2c(Nc3ccc(S(C)(=O)=O)cc3)nccc2[nH]1` [Compound 300, 2-(2-methoxyphenyl)-N-(4-methylsulfonylphenyl)-1H-pyrrolo[3,2-c]pyridin-4-amine]: 50 to 100%.

As to `c1ccc(Cn2c(-c3cccnc3)cc3cnc(Nc4ccncn4)cc32)cc1` [Compound 99, 1-benzyl-2-(3-pyridyl)-N-pyrimidin-4-yl-pyrrolo[3,2-c]pyridin-6-amine], the Emax fell in the range of 30 to 50%. Next, `CNc1nc2cnc(-c3ccc4c(c3)OCO4)cc2n1Cc1ccccc1` [Compound 791, 6-(1,3-benzodioxol-5-yl)-1-benzyl-N-methyl-imidazo[4,5-c]pyridin-2-amine]: 0 to 30%; `CN(C)C(=O)c1ccc(-c2cc3c(Nc4cccc(N(C)C)c4)nccc3n2C)cc1` [Compound 218, 4-[4-[3-(dimethylamino)anilino]-1-methyl-pyrrolo[3,2-c]pyridin-2-yl]-N,N-dimethyl-benzamide]: 50 to 100%; `COc1ccc(Nc2cc3c(cn2)cc(-c2cccc(N(C)C(C)=O)c2)n3C)cc1` [Compound 166, N-[3-[6-(4-methoxyanilino)-1-methyl-pyrrolo[3,2-c]pyridin-2-yl]phenyl]-N-methyl-acetamide]: 30 to 50%. Next, `CC(C)c1ccc(Nc2nccc3c2ncn3Cc2ccccc2)cc1` [Compound 457, 1-benzyl-N-(4-isopropylphenyl)imidazo[4,5-c]pyridin-4-amine]: 30 to 50%; `COc1ccc(Nc2nccc3[nH]c(-c4ccccc4)nc23)cc1OC` [Compound 330, N-(3,4-dimethoxyphenyl)-2-phenyl-1H-imidazo[4,5-c]pyridin-4-amine]: > 100%. Under `Oc1ccc(Nc2nccc3[nH]c(-c4cccc(F)c4)cc23)cc1` [Compound 199, 4-[[2-(3-fluorophenyl)-1H-pyrrolo[3,2-c]pyridin-4-yl]amino]phenol] stands 50 to 100%; under `CNc1nc2cnc(Nc3ccc(C(N)=O)cc3)cc2n1-c1cccc(C(F)(F)F)c1` [Compound 542, 4-[[2-(methylamino)-1-[3-(trifluoromethyl)phenyl]imidazo[4,5-c]pyridin-6-yl]amino]benzamide], 30 to 50%. Turning to `CNc1nc2cnc(Nc3ccc4c(c3)OCCO4)cc2n1-c1ccccc1` [Compound 505, N6-(2,3-dihydro-1,4-benzodioxin-6-yl)-N2-methyl-1-phenyl-imidazo[4,5-c]pyridine-2,6-diamine], the Emax was in the range of 50 to 100%. Under `COc1ccc(Nc2nccc3[nH]c(-c4ccc5c(c4)OCCO5)nc23)cc1OC` [Compound 411, 2-(2,3-dihydro-1,4-benzodioxin-6-yl)-N-(3,4-dimethoxyphenyl)-1H-imidazo[4,5-c]pyridin-4-amine] stands 50 to 100%. Next, `CNc1nc2cnc(-c3cccc(C(=O)NCCN(C)C)c3)cc2n1-c1cccc(F)c1` [Compound 771, N-(2-dimethylaminoethyl)-3-[1-(3-fluorophenyl)-2-(methylamino)imidazo[4,5-c]pyridin-6-yl]benzamide]: 0 to 30%; `COc1cccc(-c2nc3c(Nc4ccc(Cl)cc4)nccc3[nH]2)c1F` [Compound 471, N-(4-chlorophenyl)-2-(2-fluoro-3-methoxy-phenyl)-1H-imidazo[4,5-c]pyridin-4-amine]: 0 to 30%. Next, `COc1cc(Nc2cc3c(cn2)cc(-c2cnn(C)c2)n3C)cc(OC)c1OC` [Compound 125, 1-methyl-2-(1-methylpyrazol-4-yl)-N-(3,4,5-trimethoxyphenyl)pyrrolo[3,2-c]pyridin-6-amine]: > 100%. As to `CC(=O)N(C)c1cccc(-c2cc3cnc(N4CCOCC4)cc3n2C)c1` [Compound 171, N-methyl-N-[3-(1-methyl-6-morpholino-pyrrolo[3,2-c]pyridin-2-yl)phenyl]acetamide], the Emax lay in the range of 50 to 100%. Next, `COc1ccc(Nc2cc3c(cn2)cc(-c2ccc(C(=O)N(C)C)cc2)n3C)cc1OC` [Compound 46, 4-[6-(3,4-dimethoxyanilino)-1-methyl-pyrrolo[3,2-c]pyridin-2-yl]-N,N-dimethyl-benzamide]: 50 to 100%. Next, `CNc1nc2cnc(Nc3cccc(C(C)=O)c3)cc2n1Cc1ccc(OC)c(OC)c1` [Compound 673, 1-[3-[[1-[(3,4-dimethoxyphenyl)methyl]-2-(methylamino)imidazo[4,5-c]pyridin-6-yl]amino]phenyl]ethanone]: 50 to 100%; `Cn1c(NCC2CCCO2)nc2cnc(Nc3cccc(Cl)c3)cc21` (stereo not drawn) [Compound 642, N6-(3-chlorophenyl)-1-methyl-N2-(tetrahydrofuran-2-ylmethyl)imidazo[4,5-c]pyridine-2,6-diamine]: 50 to 100%. In the case of `Cc1ccc(-c2nc3c(Nc4cccc(NS(C)(=O)=O)c4)nccc3[nH]2)cc1` [Compound 384, N-[3-[[2-(p-tolyl)-1H-imidazo[4,5-c]pyridin-4-yl]amino]phenyl]methanesulfonamide], the Emax fell in the range of 30 to 50%. Under `CNc1nc2cnc(Nc3cccc(O)c3)cc2n1-c1ccccc1` [Compound 513, 3-[[2-(methylamino)-1-phenyl-imidazo[4,5-c]pyridin-6-yl]amino]phenol] stands 50 to 100%; under `CC(=O)Nc1cccc(Nc2nccc3[nH]c(-c4cccc(F)c4)cc23)c1` [Compound 206, N-[3-[[2-(3-fluorophenyl)-1H-pyrrolo[3,2-c]pyridin-4-yl]amino]phenyl]acetamide], 50 to 100%. Under `CN(C)C(=O)c1ccc(-c2cc3cnc(Nc4cccnc4)cc3n2C)cc1` [Compound 47, N,N-dimethyl-4-[1-methyl-6-(3-pyridylamino)pyrrolo[3,2-c]pyridin-2-yl]benzamide] stands 50 to 100%.
